US10927348B2, “Human adipose tissue white and ‘brown-on-white’ progenitors for reconstructive and metabolic therapies” (University of Massachusetts, priority 2014, dated 2021)
Entries after “also recorded” stand apart in the source; their conditions may differ. Counter-ions that a name gives are not always drawn.

Test system: differentiated HACAPS
Experiment: RT-PCR gene expression in differentiated HACAPS exposed to forskolin or isoproterenol
Format: cell-based, human
Details: isoproterenol for 6 hours after adipogenic differentiation, hydrochloride

SMILES: CC(C)NCC(O)c1ccc(O)c(O)c1 (stereo not shown) [isoproterenol, Isoproterenol hydrochloride]
- UCP1 mRNA expression: acute increase; also recorded: pronounced increase
